Data: patent US20250282776A1, “Bicyclic TLR7 Agonists and Uses Thereof” (Bristol-Myers Squibb Company, priority 2024, published 2025)

Tests used:
[1] = biological target: T1, human TLR8 (hTLR8) (Homo sapiens, UniProt Q9NR97); experiment: Human TLR8 agonist activity assay (measured in a similar manner); assay type: cell-based; details: HEK-Blue TLR cells, SEAP reporter, measured in a similar manner to TLR7; some values average of multiple measurements
T1 construct: expressed in transfected cells
T1 sequence (Q9NR97 27-1041): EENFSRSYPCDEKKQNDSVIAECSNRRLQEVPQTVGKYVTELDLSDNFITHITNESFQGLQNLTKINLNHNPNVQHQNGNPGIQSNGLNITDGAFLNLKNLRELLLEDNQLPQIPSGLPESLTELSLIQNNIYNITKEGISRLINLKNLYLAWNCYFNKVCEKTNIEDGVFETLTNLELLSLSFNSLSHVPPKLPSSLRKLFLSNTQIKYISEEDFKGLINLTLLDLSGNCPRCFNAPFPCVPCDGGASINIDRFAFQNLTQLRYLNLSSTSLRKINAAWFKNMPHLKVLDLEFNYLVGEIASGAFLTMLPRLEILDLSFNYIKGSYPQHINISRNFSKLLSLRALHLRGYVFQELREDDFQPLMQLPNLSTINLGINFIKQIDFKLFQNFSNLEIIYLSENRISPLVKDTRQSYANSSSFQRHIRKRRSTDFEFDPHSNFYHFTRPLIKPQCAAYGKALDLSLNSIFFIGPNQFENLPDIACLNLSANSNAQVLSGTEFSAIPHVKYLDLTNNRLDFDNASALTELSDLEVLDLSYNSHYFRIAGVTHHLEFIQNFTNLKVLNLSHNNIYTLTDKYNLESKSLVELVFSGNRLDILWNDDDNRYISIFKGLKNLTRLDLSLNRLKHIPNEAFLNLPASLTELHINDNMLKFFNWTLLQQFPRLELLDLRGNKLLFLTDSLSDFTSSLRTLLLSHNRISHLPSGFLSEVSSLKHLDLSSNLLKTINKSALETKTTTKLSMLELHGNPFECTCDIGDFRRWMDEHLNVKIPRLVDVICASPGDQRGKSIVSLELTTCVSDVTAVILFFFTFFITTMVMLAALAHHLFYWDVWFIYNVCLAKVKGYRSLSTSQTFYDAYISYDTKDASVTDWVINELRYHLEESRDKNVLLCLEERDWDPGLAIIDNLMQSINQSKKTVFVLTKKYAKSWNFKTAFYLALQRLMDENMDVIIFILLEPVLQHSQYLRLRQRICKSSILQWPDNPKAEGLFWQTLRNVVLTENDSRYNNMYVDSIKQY
Method in brief: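 Compounds were added to HEK-Blue TLR8 reporter cells, pre-incubated 16-18 h, then treated 18 h at 37° C, 5% CO2. SEAP output was measured with Quanti-Blue (30 min) at OD 620 nm. Some values are averages of multiple measurements.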

[2] = biological target: T2, human TLR7 (hTLR7) (Homo sapiens, UniProt Q9NYK1); experiment: Human TLR7 agonist activity assay (HEK-Blue TLR7 SEAP reporter); assay type: cell-based; details: HEK-Blue TLR7 cells, 18 h incubation, Quanti-Blue, OD 620 nm, some values average of multiple measurements
T2 construct: host or cells: HEK-Blue TLR7 cells (engineered human embryonic kidney cells)
T2 sequence (Q9NYK1 27-1049): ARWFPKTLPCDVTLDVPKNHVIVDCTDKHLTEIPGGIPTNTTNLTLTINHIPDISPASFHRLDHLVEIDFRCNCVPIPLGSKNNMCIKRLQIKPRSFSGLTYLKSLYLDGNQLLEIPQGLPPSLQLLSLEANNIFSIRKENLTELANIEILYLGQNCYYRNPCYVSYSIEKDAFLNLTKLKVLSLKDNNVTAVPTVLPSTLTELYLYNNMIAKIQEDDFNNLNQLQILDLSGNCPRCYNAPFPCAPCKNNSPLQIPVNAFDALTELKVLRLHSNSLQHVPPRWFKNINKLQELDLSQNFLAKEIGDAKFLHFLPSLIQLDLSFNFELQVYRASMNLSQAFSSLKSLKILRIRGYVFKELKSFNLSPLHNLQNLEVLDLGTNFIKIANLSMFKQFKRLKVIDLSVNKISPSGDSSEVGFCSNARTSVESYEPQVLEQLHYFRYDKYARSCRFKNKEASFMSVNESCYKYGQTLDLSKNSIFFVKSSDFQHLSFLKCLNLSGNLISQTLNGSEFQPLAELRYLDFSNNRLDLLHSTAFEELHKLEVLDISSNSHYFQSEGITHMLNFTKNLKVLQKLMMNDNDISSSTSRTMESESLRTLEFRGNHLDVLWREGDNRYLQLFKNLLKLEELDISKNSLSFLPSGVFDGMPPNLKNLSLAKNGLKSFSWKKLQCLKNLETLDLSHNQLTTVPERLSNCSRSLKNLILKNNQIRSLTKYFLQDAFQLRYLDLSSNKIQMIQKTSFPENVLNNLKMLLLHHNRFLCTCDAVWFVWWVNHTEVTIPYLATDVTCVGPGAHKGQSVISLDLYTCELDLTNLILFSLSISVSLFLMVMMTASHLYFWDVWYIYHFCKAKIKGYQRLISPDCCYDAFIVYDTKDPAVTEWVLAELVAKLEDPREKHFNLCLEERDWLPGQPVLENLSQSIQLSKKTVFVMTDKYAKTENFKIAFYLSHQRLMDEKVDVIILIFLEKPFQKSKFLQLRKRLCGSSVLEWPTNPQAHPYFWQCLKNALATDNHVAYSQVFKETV
Method in brief: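 HEK-Blue TLR7 cells seeded 16-18 h, then exposed to compound for 18 h at 37 °C, 5% CO2. Secreted SEAP read with Quanti-Blue at OD 620 nm after 30 min. EC50 taken as concentration giving half-maximal response between baseline and maximum; some values averaged over repeats.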

EC50 [1] | EC50 [2] | SMILES
360 nM | 861 nM | CCCCN(CCO)c1nc(N)nc2cn(Cc3ccc(CN[C@H]4CCOC4)c4c3OCCC4)nc12 [Compound 136, (S)-2-((5-Amino-2-((5-(((tetrahydrofuran-3-yl)amino)methyl)chroman-8-yl)methyl)-2H-pyrazolo[4,3-d]pyrimidin-7-yl)(butyl)amino) ethan-1-ol]
3490 nM | 1690 nM | CCCCN(CCO)c1nc(N)nc2cn(Cc3ccc(CN[C@@H]4CCCN(C(C)=O)C4)c4cccnc34)nc12 [Compound 186]
469 nM | 326 nM | CCCCN(CCO)c1nc(N)nc2cn(Cc3ccc(CN4CCN(C5CCC5)CC4)c4cccnc34)nc12 [Compound 60]
1080 nM | 333 nM | CCCCN(CCO)c1nc(N)nc2cn(Cc3c(F)cc(C4=CCC(NCCOC)CC4)cc3OC)nc12 (centres unmarked) [Compound 193]
460 nM | 1160 nM | CCCCN(CCO)c1nc(N)nc2cn(Cc3ccc(CN[C@@H]4CCOC4)cc3)nc12 [Compound 157]
1140 nM | 828 nM | CCCCN(CCO)c1nc(N)nc2cn(Cc3ccc(CNC4COC4)cc3OC)nc12 [Compound 26]
2500 nM | 2500 nM | CCCCN(CCO)c1nc(N)nc2cn(Cc3ccc(CNC4CC(O)C4)cc3OC)nc12 (centres unmarked) [Compound 29]
727 nM | 732 nM | CCCCN(CCO)c1nc(N)nc2cn(Cc3ccc(CN4C[C@H]5COC[C@H]5C4)cc3OC)nc12 [Compound 11]
682 nM | 385 nM | CCCCN(c1nc(N)nc2cn(Cc3ccc(CN4CCCCC4)cc3OC)nc12)C(C)CO (racemic) [Compound 49, 2-((5-amino-2-(2-methoxy-4-(piperidin-1-ylmethyl)benzyl)-2H-pyrazolo[4,3-d]pyrimidin-7-yl)(butyl)amino)propan-1-ol]
564 nM | 1360 nM | CCCCN(CCO)c1nc(N)nc2cn(Cc3ccc(CNC4CCOC(C)C4)cc3OC)nc12 (single isomer, unassigned) [Compound 121]
2500 nM | 1240 nM | CCCCN(CCO)c1nc(N)nc2cn(Cc3c(F)cc(CN[C@@H]4COC[C@@H]4O)cc3OC)nc12 [Compound 95]
1420 nM | 1760 nM | CCCCN(CCO)c1nc(N)nc2cn(Cc3ccc(CNC4CCOCC4)cc3C(F)F)nc12 [Compound 100]
508 nM | 499 nM | CCCCN(CCO)c1nc(N)nc2cn(Cc3ccc(CN[C@@H]4CCCN(C(=O)OC)C4)c4cccnc34)nc12 [Compound 185, Methyl (R)-3-(((8-((5-amino-7-(butyl(2-hydroxyethyl)amino)-2H-pyrazolo[4,3-d]pyrimidin-2-yl)methyl)quinolin-5-yl)methyl)amino) piperidine-1-carboxylate]
2410 nM | 2150 nM | CCCCN(CCO)c1nc(N)nc2cn(Cc3cccc4c3OCCN4C(=O)CN(C)C)nc12 [Compound 90]
614 nM | 196 nM | CCCCN(c1nc(N)nc2cn(Cc3c(F)cc(C4CCN(C5CC6(COC6)C5)CC4)cc3OC)nc12)C(C)CO (centres unmarked) [Compound 164]
1950 nM | 1640 nM | COc1cc(CNC2CCC2)ccc1Cn1cc2nc(N)nc(N(CCO)CCCCF)c2n1 [Compound 176]
